Target: FKBP12 (Homo sapiens, UniProt P62942)
Test: Inhibition of peptidyl-prolyl isomerase (rotamase) activity, apparent Ki
Type: biochemical
Conditions: chymotrypsin-coupled assay, N-succinyl-Ala-Ala-Pro-Phe-p-nitroanilide, pH 7.8
Excerpt: The inhibition of the prolyl peptidyl cis-trans isomerase activity of FKBP may be measured as an indicator of this affinity.
Inhibition of the peptidyl-prolyl isomerase (rotamase) activity of the compounds used in the inventive methods and pharmaceutical compositions can be evaluated by known methods described in the literature (Harding et al., Nature, 1989, 341:758-760; Holt et al. J. Am. Chem. Soc., 115:9923-9938). These values are obtained as apparent Ki's and are presented for representative compounds in TABLE II.
The cis-trans isomerization of an alanine-proline bond in a model substrate, N-succinyl-Ala-Ala-Pro-Phe-p-nitroanilide, is monitored spectrophotometrically in a chymotrypsin-coupled assay, which releases paranitroanilide from the trans form of the substrate. The inhibition of this reaction caused by the addition of different concentrations of inhibitor is determined, and the data is analyzed as a change in first-order rate constant as a function of inhibitor concentration to yield the apparent Ki values. […]
The absorbance at 390 nm versus time is monitored for 90 seconds using a spectrophotometer and the rate constants are determined from the absorbance versus time data files.

Sequence of FKBP12 (P62942 whole entry, species assumed): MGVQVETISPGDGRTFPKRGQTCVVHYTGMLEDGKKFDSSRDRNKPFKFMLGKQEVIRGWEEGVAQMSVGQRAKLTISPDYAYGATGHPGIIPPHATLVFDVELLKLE

- Ki: 225 nM
Substance: 3-(3-Pyridyl)-1-propyl (2S)-1-(3,3-Dimethyl-1,2-dioxopentyl)-2-pyrrolidinecarboxylate, N-oxide [Compound 1]
